We go through 1 substance from PMC11091117, “A fluorescently-tagged tick kinin neuropeptide triggers peristalsis and labels tick midgut muscles” (Scientific Reports, 2024).

Entries after “also recorded” stand apart in the source; their conditions may differ. Where no end group is shown, it is not given here.

Experiment [1] deals with R. microplus recombinant receptor. More on the design: method as in PMID 31794138. The following applies: cited from earlier work.
The test system of experiment [2] is vector-only (V/O) CHO-K1 cells. Kind of experiment: Cellular end-point fluorescence calcium mobilization assay, vector-only control cells. The format is cell-based. The following applies: 10 µM peptide, Fluo-8, 29 °C, 60 s, 4 technical replicates. The text has this:
Three peptides were used in this study. These included: 1) the ligand for the endogenous tick kinin receptor from Rhipicephalus sanguineus, Rhisa-kinin 8 peptide of sequence GTGEDQAFSPWGamide (Rhisa-K-8; RK8; of identical sequence to Rhimi-K-8 in Rhipicephalus microplus)[48], 2) the same peptide but fluorescently labeled at the N-terminus with tetramethylrhodamine (TMR) a red fluorescent dye, designated TMR-Rhisa-K-8 (TMR-RK8), and 3) a labeled peptide synthesized with the scrambled sequence of the kinin ligand, designated TMR-Scrambled. The sequence of TMR-RK8 was TMR-C-GTGEDQAFSPWGamide). The TMR-Scrambled kinin (TMR-C-GTQWGPGFEADSamide) served as a negative control for tissue labeling. […]
(§1) A fluorescence-based intracellular calcium mobilization end-point assay described by Xiong, et al.[50] was used to confirm the activity of the TMR-labeled RK8 peptide on a cell line expressing the tick kinin receptor. […] The calcium fluorescence signal was detected by a CLARIOstar (BMG LABTECH, Chicago, IL, United States) plate reader set to read at the fluorescence plate-mode with excitation and emission wavelengths of 490 and 525 nm at 29 °C. Calcium responses were read immediately after the addition of 10 µL of either TMR-RK8, unlabeled RK8, or blank solvent (1% DMSO in HBSS). […]

Experiment [3] relates to tick kinin receptor (recombinant R. microplus receptor, CHO-K1 BMLK3 cells). Description: Cellular end-point fluorescence calcium mobilization assay, BMLK3 cells. The format is cell-based, Rhipicephalus microplus.
Source text: Three peptides were used in this study. These included: 1) the ligand for the endogenous tick kinin receptor from Rhipicephalus sanguineus, Rhisa-kinin 8 peptide of sequence GTGEDQAFSPWGamide (Rhisa-K-8; RK8; of identical sequence to Rhimi-K-8 in Rhipicephalus microplus)[48], 2) the same peptide but fluorescently labeled at the N-terminus with tetramethylrhodamine (TMR) a red fluorescent dye, designated TMR-Rhisa-K-8 (TMR-RK8), and 3) a labeled peptide synthesized with the scrambled sequence of the kinin ligand, designated TMR-Scrambled. The sequence of TMR-RK8 was TMR-C-GTGEDQAFSPWGamide). The TMR-Scrambled kinin (TMR-C-GTQWGPGFEADSamide) served as a negative control for tissue labeling. All peptides were custom-synthesized and purchased from GenScript (Piscataway, NJ, USA) with a purity of ≥ 95% and the cysteine in bold in both sequences was added to attach the label. Experiments were replicated with independently synthesized batches (4 mg each) of labeled and unlabeled peptides, for reproducibility. Unlabeled RK8 was used as a competitive ligand to verify target-specific binding of the labeled TMR-RK8 (see Ligand Competition Assay). For cell assays, the peptide stock solutions (100 µM) were made in 1% dimethyl sulfoxide (DMSO) in Hank’s balanced salt solution (HBSS, Thermo Fisher, Waltham, USA). For fluorescent cell labeling, peptide working solutions (10 µM) were prepared in HBSS from stock solutions. For assays on the midgut, peptides were solubilized and diluted in a tick physiological saline consisting of 140 mM NaCl, 5 mM KCl, 1 mM MgCl2, 5 mM CaCl2, 4 mM NaHCO3, and 5 mM HEPES, pH 7.2[49].
The tick kinin receptor is stably expressed in the recombinant CHO-K1 cell line designated BMLK3 (Boophilus microplus leucokinin receptor 3) that was constructed and selected as described by Holmes, et al.[47]. The CHO-K1 cells had been obtained from the American Type Culture Collection (ATCC) for transfection with the expression construct. This cell line has been kept in the laboratory since 2003. Cells that were transfected only with an empty plasmid are referred to as “vector-only” (V/O) cells and were used as a negative control. Before all experiments, the BMLK3 cell line or V/O cells were separately cultured in T-75 flasks with selective medium (F-12 K medium containing 10% FBS and 800 μgmL^−1 of G418 sulfate) for one to two passages in a humidified incubator at 37 °C and 5% CO2.
as §1, with “receptor. For this, BMLK3 and V/O cells were cultured in F-12 K medium (1% FBS and 400 μgmL^−1- of G418 Sulfate). The cells were seeded in a 96-well plate with 20,000 cells per well and incubated overnight at 37 °C and 5% CO2. The next morning, cells were prepared for the assay following the manufacturer’s instructions for the Fluo-8 Calcium Flux Assay Kit – NoWash (Abcam, Cambridge, United Kingdom). The F-12 K medium in the plate was removed by inverting the plate and gently blotting on paper towels.” for “receptor.”
(In general: Calcium flux is commonly read through the fluorescence of an indicator in the cells.)

Experiment [4] concerns tick kinin receptors on midgut muscles. Description: Ligand competition assay on midgut. The following applies: TMR-RK8 10 µM 1 min, then unlabeled RK8 100 µM 1 min, tick saline, confocal 20x. The format is binding, Rhipicephalus sanguineus. From the text:
Individual female ticks were immobilized on a Petri dish filled with wax by submerging their legs in melted wax heated with a soldering pencil (Electronic Control Soldering Station EC 1000, Weller, Apex, North Carolina, USA). Females were dissected under physiological saline following the protocol described by Tidwell et al.[51]. The tick was cut along the edge of the scutum/alloscutum using a stainless steel #12 scalpel blade (Integra Miltex, York, PA, USA), after which the scutum was removed with a pair of fine forceps. To expose the midgut for removal, the tracheae, Malpighian tubules, ovaries, rectal sac, and synganglion were removed with fine forceps in that order. The midgut was then carefully removed and placed into 200 µL of fresh tick saline (See Reagents and Peptides) on a single gasketed incubation chamber (500 µL, Size 22 × 40 mm, Electron Microscopy Sciences, Hatfield, PA). […]
Fluorescently-labeled midgut tissues were imaged using a Leica SP8 inverted confocal microscope. For fluorescence excitation, the 405 nm fixed-wavelength laser was used for DAPI and a white light laser selective for wavelengths between 470 and 670 nm was used for tetramethylrhodamine and phalloidin. […] Images were analyzed and computer-colored using Fiji/ImageJ (National Institutes of Health, Bethesda, MD). […]

“GTGEDQAFSPWG-NH2 [RK8, endogenous ligand of the tick kinin receptor from Rhipicephalus sanguineus, identical to Rhimi-K-8 of R. microplus]”: the “activity on the R. microplus recombinant receptor (in words)” value in experiment [1] is reported as “highly active at the nanomolar level”. For the same substance, the “calcium fluorescence response of vector-only cells (in words)” value in experiment [2] is “invariable background fluorescence”. Further, the “intracellular calcium fluorescence response / receptor activation (in words)” value in experiment [3] (10 nM to 10 μM (four concentrations), 1% DMSO in HBSS, Fluo-8, Ex 490/Em 525 nm, 29 °C, read 60 s at 1 s intervals, average raw fluorescence units of 4 technical replicates, simple linear regression) is recorded as “elicited a dose-dependent intracellular calcium fluorescence response”. Besides, the “fluorescence units at highest concentration, TMR-RK8 compared with RK8 (in words)” value in experiment [3] (highest concentration assayed 10 µM, Fluo-8, 4 technical replicates) is “maximal and similar for the highest concentration assayed of 10 µM”. For the same substance, the “displacement of TMR-RK8 muscle labeling by unlabeled RK8 (in words)” value in experiment [4] was “substantial reduction in the fluorescent signal observed on muscles; also recorded: greatly reduced the fluorescent signal of muscles; also recorded: competitive inhibition of fluorescent signal on muscle tissue”; in experiment [4] (listed as kinin 8), “competed TMR-RK8, decreasing confocal microscopy signal intensity”.
